Our source for the pest or weed control and plant injury values is US4208514A, “4(3H)-Oxobenzo-2,1,3-thiadiazine-2,2-dioxides” (The Dow Chemical Company, priority 1976, dated 1980).

One may read the pest or weed control as the degree to which the test organism was suppressed or injured, in per cent. Low readings indicate a weak effect, high ones a strong effect.

Format in all cases: in vivo
One test concerns Annual Morning Glory. Kind of test: General post-emergent herbicidal activity at 10 lbs/acre, Annual Morning Glory. The following applies: Ipomoea, post-emergence, 336 h. From the text:
(§1) Various species of plants, both broadleaf weeds and valuable crops, were planted in beds of good agricultural soil in a greenhouse. After the plants had emerged and grown to a height of about 2-6 inches, a portion of the plants were sprayed with an aqueous mixture, made by mixing a selected active ingredient and […], […] Other portions of the plants were left untreated to serve as controls. In each test the active ingredient was a 3-methylethyl-1H-2,1,3-benzothiadiazin-4(3H)-one-2,2-dioxide having a substituent in the one position according to the invention.
(§2) After a period of 2 weeks the selective effect of the test ingredient on the plants was evaluated by a comparison with the control group of plants.

A further test relates to Pig Weed. As to the kind of experiment: General post-emergent herbicidal activity at 10 lbs/acre, Pig Weed. The following applies: post-emergence, 336 h.
Description: as §1, §2

The test system of test [1] is Velvet Leaf. Kind of test: General post-emergent herbicidal activity at 10 lbs/acre, Velvet Leaf. The following applies: post-emergence, 336 h.
Description: as §1, §2

In the next test the test system is Nutsedge. As to the kind of experiment: General post-emergent herbicidal activity at 10 lbs/acre, Nutsedge. The following applies: Cyperus, post-emergence, 336 h.
Description: as §1, §2

Test [2] deals with Velvet Leaf. Kind of test: Selective post-emergent greenhouse test, Velvet Leaf. The following applies: post-emergence, 336 h, 2 weeks; for pest or weed control at 358.672 g/ha: 0.32 lbs/acre; for pest or weed control at 706.135 g/ha: 0.63 lbs/acre.
Description: (§3) So as to illustrate clearly the phytotoxic properties of the various active ingredients of the present invention, a group of controlled greenhouse experiments is described below.
(§4) Various species of plants, both broadleaf weeds and valuable crops, were planted in beds of good agricultural soil in a greenhouse. After the plants had emerged and grown to a height of about 2-6 inches, a portion of the plants were sprayed with an aqueous mixture, made by mixing a selected active ingredient and emulsifier or dispersant with water to provide solution containing 250 or 125 ppm active ingredient, employing sufficient amounts of the treating composition to provide low post emergent application rates of about 0.63 or 0.32 pounds per acre. Other portions of the plants were left untreated to serve as controls. In each test the active ingredient was a 3-methylethyl-1H-2,1,3-benzothiadiazin-4(3H)-one-2,2-dioxide having a substituent in the one position according to the invention.
as §2

The subject of the next test is Soybean. Kind of test: Selective post-emergent greenhouse test, Soybean (crop injury). The following applies: Glycine max, post-emergence, 336 h, 2 weeks, read-out: % Control Soybean; for plant injury at 358.672 g/ha: 0.32 lbs/acre; for plant injury at 706.135 g/ha: 0.63 lbs/acre.
Description: as §3, §4, §2

A further test has as its system Jimson Weed. As to the kind of experiment: Selective post-emergent greenhouse test, Jimson Weed. The following applies: post-emergence, 336 h, 2 weeks; for pest or weed control at 358.672 g/ha: 0.32 lbs/acre; for pest or weed control at 706.135 g/ha: 0.63 lbs/acre.
Description: as §3, §4, §2

The next test concerns Cotton. Kind of test: Selective post-emergent greenhouse test, Cotton (crop injury). The following applies: Gossypium hirsutum, post-emergence, 336 h, post-emergent, 2 weeks, crop, read-out: % Control Cotton; for plant injury at 358.672 g/ha: 0.32 lbs/acre; for plant injury at 706.135 g/ha: 0.63 lbs/acre.
Description: as §3, §4, §2

Take `CCCC(=O)N1c2ccccc2C(=O)N(C(C)C)S1(=O)=O` [COCH2 CH2 CH3]: the pest or weed control at 11208.5 g/ha was 100% in the test with Annual Morning Glory, 100% with Pig Weed, 100% in the test on Velvet Leaf [1] and 90% with Nutsedge.

In the case of `CCCCOC(=O)N1c2ccccc2C(=O)N(C(C)C)S1(=O)=O` [CO2 (CH2)3 CH3], the pest or weed control at 11208.5 g/ha with Annual Morning Glory is 100%; in the test with Pig Weed, 100%; with Velvet Leaf [1], 100%; in the test on Nutsedge, 95%.

Regarding `CC(C)C(=O)N1c2ccccc2C(=O)N(C(C)C)S1(=O)=O` [COCH(CH3)2, 1H-2,1,3-Benzothiadiazin-4 (3H)-one:3-(1-methylethyl)-1-(2- -methyl-1-oxopropyl)-2,2-dioxide], the pest or weed control at 11208.5 g/ha worked out at 100% with Annual Morning Glory, 100% in the test on Velvet Leaf [1] and 95% with Nutsedge.

On to `CCCCS(=O)(=O)N1c2ccccc2C(=O)N(C(C)C)S1(=O)=O` [SO2 (CH2)3 CH3, 1H-2,1,3-Benzothiadiazin-4(3H)-one: 1-Butylsulfonyl-3-(1-methylethyl)-; 2,2-dioxide], for which the pest or weed control at 11208.5 g/ha in the test with Annual Morning Glory is 100%; with Pig Weed, 100%; in the test with Velvet Leaf [1], 100%; in the test on Nutsedge it was 85%.

Take `CC(C)N1C(=O)c2ccccc2N(S(=O)(=O)C(C)C)S1(=O)=O` [SO2 CH(CH3)2, 1H-2,1,3-Benzothiadiazin-4(3H)-one: 3-(1-methylethyl)-1-(1-methylethylsulfonyl)-; 2,2-dioxide]: the pest or weed control at 11208.5 g/ha was 100% with Annual Morning Glory, 100% in the test on Pig Weed, 100% with Velvet Leaf [1] and 85% in the test on Nutsedge.

Turning to `CCS(=O)(=O)N1c2ccccc2C(=O)N(C(C)C)S1(=O)=O` [SO2 CH2 CH3, 1H-2,1,3-Benzothiadiazin-4(3H)-one; 1-Ethylsulfonyl-3-(1-methylethyl)-; 2,2-dioxide], the pest or weed control at 11208.5 g/ha in the test on Annual Morning Glory came out at 100%; in the test on Pig Weed, 100%; in the test on Velvet Leaf [1] it was 100%; in the test with Nutsedge it was 85%.

Consider `CC(C)OC(=O)N1c2ccccc2C(=O)N(C(C)C)S1(=O)=O` [CO2 CH(CH3)2], for which the pest or weed control at 11208.5 g/ha with Annual Morning Glory was 50%; in the test on Pig Weed it was 0%; in the test on Velvet Leaf [1], 100%; in the test on Nutsedge it was 70%.

Consider `CCN(CC)S(=O)(=O)N1c2ccccc2C(=O)N(C(C)C)S1(=O)=O` [SO2 N(C2 H5)2], for which the pest or weed control at 11208.5 g/ha in the test with Annual Morning Glory came out at 100%; in the test on Pig Weed, 100%; with Velvet Leaf [1] it was 100%; in the test on Nutsedge, 60%.

With `COC(=O)CCC(=O)N1c2ccccc2C(=O)N(C(C)C)S1(=O)=O` [COCH2 CH2 CO2 CH3, 1H-2,1,3-Benzothiadiazin-1-butanoic acid; γ,4-Dioxo-3-(1-methylethyl)-3,4-dihydro-, methyl ester; 2,2-dioxide], the pest or weed control at 11208.5 g/ha was 100% in the test on Annual Morning Glory, 100% in the test on Velvet Leaf [1] and 95% with Nutsedge.

Take `CCCS(=O)(=O)N1c2ccccc2C(=O)N(C(C)C)S1(=O)=O` [SO2 CH2 CH 2 CH3, 1H-2,1,3-Benzothiadiazin-4(3H)-one: 3-(1-methylethyl)-1-propylsulfonyl-; 2,2-dioxide]: the pest or weed control at 11208.5 g/ha in the test with Annual Morning Glory was determined as 100%; in the test on Pig Weed it was 100%; with Velvet Leaf [1], 100%; in the test on Nutsedge, 90%.

`CC(C)N1C(=O)c2ccccc2N(S(C)(=O)=O)S1(=O)=O` [SO2 CH3, 1H-2,1,3-Benzothiadiazin-4(3H)-one: 3-(1-methylethyl)-1-methylsulfonyl-; 2,2-dioxide]: the pest or weed control at 11208.5 g/ha with Annual Morning Glory turned out to be 100%; in the test with Pig Weed it was 100%; in the test on Velvet Leaf [1], 100%; in the test on Nutsedge, 20%.

For `CC(C)N1C(=O)c2ccccc2N(S(=O)(=O)CCl)S1(=O)=O` [SO2 CHCl, 1H-2,1,3-Benzothiadiazin-4(3H)-one: 1-chloromethylsulfonyl-3-(1-methylethyl)-; 2,2-dioxide], the pest or weed control at 11208.5 g/ha with Annual Morning Glory was 80%; in the test with Pig Weed, 100%; with Velvet Leaf [1] it was 100%; with Nutsedge it was 90%.

Turning to `CC(C)N1C(=O)c2ccccc2N(C(=O)C2CCCCC2)S1(=O)=O`, in the test on Velvet Leaf [2], the pest or weed control at 358.672 g/ha worked out at 0% and the pest or weed control at 706.135 g/ha stood at 100%. In the test with Soybean, the plant injury at 358.672 g/ha came out at 0% and the plant injury at 706.135 g/ha is 0%. Also, in the test with Jimson Weed, the pest or weed control at 358.672 g/ha worked out at 100% and the pest or weed control at 706.135 g/ha is 100%. In addition, in the test with Cotton, the plant injury at 358.672 g/ha was determined as 0% and the plant injury at 706.135 g/ha was found to be 100%.

As for `CCCC(C)C(=O)N1c2ccccc2C(=O)N(C(C)C)S1(=O)=O` (centres unmarked) [COCH(CH3)CH2 CH2 CH3, 1H-2,1,3-Benzothiadiazin-4(3H)-one: 3-(1-methylethyl)-1-(2-methyl-1-oxopentyl)-; 2,2-dioxide], the pest or weed control at 11208.5 g/ha came out at 100% with Annual Morning Glory, 100% in the test with Velvet Leaf [1] and 95% in the test on Nutsedge.

As for `CCOC(=O)N1c2ccccc2C(=O)N(C(C)C)S1(=O)=O` [CO2 CH2 CH3], the pest or weed control at 358.672 g/ha in the test on Velvet Leaf [2] was determined as 70%; in the test on Jimson Weed, 100%. Moreover, the pest or weed control at 706.135 g/ha with Velvet Leaf [2] and in the test on Jimson Weed was 100% each time. In addition, the plant injury at 358.672 g/ha with Soybean is 0%; in the test on Cotton, 10%. The plant injury at 706.135 g/ha was 0% in the test with Soybean and 30% with Cotton.

For `CCCOC(=O)N1c2ccccc2C(=O)N(C(C)C)S1(=O)=O` [CO2 CH2 CH2 CH3], the pest or weed control at 11208.5 g/ha with Annual Morning Glory stood at 100%; with Pig Weed, 100%; in the test on Velvet Leaf [1], 100%; with Nutsedge, 90%.

`CC(C)N1C(=O)c2ccccc2N(C(=O)CC(C)(C)C)S1(=O)=O` [COCH2 C(CH3)3, 1H-2,1,3-Benzothiadiazin-4(3H)-one: 1-(3,3-dimethyl-1-oxobutyl)-3-(1-methylethyl)-; 2,2-dioxide]: the pest or weed control at 358.672 g/ha was found to be 100% with Velvet Leaf [2] and 90% in the test on Jimson Weed. Moreover, the pest or weed control at 706.135 g/ha in the test with Velvet Leaf [2] and in the test on Jimson Weed was 100% in each case. Moreover, the plant injury at 358.672 g/ha in the test on Soybean and in the test with Cotton was 0% throughout. For the same molecule, the plant injury at 706.135 g/ha in the test on Soybean and in the test on Cotton was 0% in each case.
